Reference: patent US20030199671A1, “Binding molecules for Fc-region polypeptides” (priority 2001, published 2003)
Positions of bridges follow the written chain, without caps; N, C: chain ends. Residues, ends and D or L forms follow the SMILES beside them. *: point of attachment. 5FAM = O=C1OC2(c3ccc(O)cc3Oc3cc(O)ccc32)c2ccc(C(=O)*)cc21

What was measured:
[1] = target: T1, human plasma IgG1 (Homo sapiens, UniProt P01857); experiment: Fluorescence anisotropy binding, fluorescein-labeled peptide; conditions: 2 nM labeled peptide; PBS with 0.01% Tween 20
T1 construct: the individual human plasma IgG isoforms: IgG1, IgG2, IgG3, or IgG4; purchased Calbiochem; host or cells: human plasma
T1 sequence (P01857 1-330 isoform P01857-1): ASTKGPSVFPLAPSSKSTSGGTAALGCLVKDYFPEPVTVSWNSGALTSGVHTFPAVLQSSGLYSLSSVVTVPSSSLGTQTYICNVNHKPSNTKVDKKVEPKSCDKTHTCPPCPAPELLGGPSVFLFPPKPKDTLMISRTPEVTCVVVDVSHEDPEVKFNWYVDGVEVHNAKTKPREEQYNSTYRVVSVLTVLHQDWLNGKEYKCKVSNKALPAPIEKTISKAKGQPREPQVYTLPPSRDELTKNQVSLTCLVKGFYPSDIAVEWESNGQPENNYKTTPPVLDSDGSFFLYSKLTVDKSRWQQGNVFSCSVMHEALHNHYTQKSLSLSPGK
Description: (§1) All measurements were performed in 384 well microplates with 20 nM fluorescein-labeled peptide and various concentrations of the IgG isoform in a volume of between 10 and 20 μl using a Tecan Polarion fluorescence polarization plate reader. All binding buffers included 0.01% (v/v) Tween 20 to prevent peptide adsorption to the microplate. The binding mixture was equilibrated for 10 minutes in the microplate at 30° C. prior to performing the measurement.
(§2) Peptides were synthesized, fluorescein-labeled and HPLC purified as described above. Binding studies were performed using either a mixture of human plasma IgG isoforms (the Fc protein) or the individual human plasma IgG isoforms: IgG1, IgG2, IgG3, or IgG4.
(§3) Measurements were performed in 384-well microplates with 2 nM fluorescein-labeled peptide and a varied concentration of the IgG isoform target in a volume of 10 μl using a Tecan Polarion fluorescence polarization plate reader. The Fc binding buffer was 50 mM Tris-HCl, 200 mM NaCl, pH 8.0, 0.01% Tween 20. The IgG binding buffer was PBS with 0.01% Tween 20. The binding mixtures were equilibrated for 10 minutes in the microplate at 30° C. prior to performing the measurements.

[2] = target: T2, human plasma IgG2 (Homo sapiens, UniProt P01859); experiment: as above; conditions: 2 nM labeled peptide; PBS with 0.01% Tween 20
T2 construct: the individual human plasma IgG isoforms: IgG1, IgG2, IgG3, or IgG4; purchased Calbiochem; host or cells: human plasma
T2 sequence (P01859 1-326 isoform P01859-1): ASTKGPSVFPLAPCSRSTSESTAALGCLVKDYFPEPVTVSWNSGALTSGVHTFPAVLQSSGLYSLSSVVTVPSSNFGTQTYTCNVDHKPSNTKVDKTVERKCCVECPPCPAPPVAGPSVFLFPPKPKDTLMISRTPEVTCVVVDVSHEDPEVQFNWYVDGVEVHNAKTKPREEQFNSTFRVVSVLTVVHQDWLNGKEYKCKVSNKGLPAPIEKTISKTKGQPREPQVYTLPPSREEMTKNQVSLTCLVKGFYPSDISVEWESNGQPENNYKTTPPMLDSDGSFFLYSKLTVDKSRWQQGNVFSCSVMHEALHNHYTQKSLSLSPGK
Description: as §1, §2, §3

[3] = target: T3, human plasma IgG4 (Homo sapiens, UniProt P01861); experiment: as above; conditions: 2 nM labeled peptide; PBS with 0.01% Tween 20
T3 construct: the individual human plasma IgG isoforms: IgG1, IgG2, IgG3, or IgG4; purchased Calbiochem; host or cells: human plasma
T3 sequence (P01861 1-327 isoform P01861-1): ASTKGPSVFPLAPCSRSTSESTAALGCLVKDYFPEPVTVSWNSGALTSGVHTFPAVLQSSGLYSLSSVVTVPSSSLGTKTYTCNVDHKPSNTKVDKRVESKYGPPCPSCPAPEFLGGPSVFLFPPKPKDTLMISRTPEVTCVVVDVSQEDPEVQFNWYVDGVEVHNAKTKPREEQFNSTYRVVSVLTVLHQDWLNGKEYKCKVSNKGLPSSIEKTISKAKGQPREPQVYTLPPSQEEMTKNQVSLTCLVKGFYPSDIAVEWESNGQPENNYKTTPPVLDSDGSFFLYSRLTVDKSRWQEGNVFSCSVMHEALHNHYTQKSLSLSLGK
Description: (§4) Peptides were synthesized by BACHEM Bioscience, Inc., (King of Prussia, Pa.), fluorescein labeled and purified by HPLC. Binding studies were performed using either a mixture of human plasma IgG isoforms (the Fc target) or the individual human plasma IgG isoforms: IgG1, IgG2, IgG3, or IgG4. All Fc target proteins were obtained from Calbiochem.
as §1, §2, §3

[4] = target: Fc (mixture of human plasma IgG isoforms); experiment: as above; conditions: 2 nM labeled peptide; 50 mM Tris-HCl, 200 mM NaCl, pH 8.0, 0.01% Tween 20
Description: as §4, §1, §2, §3

[5] = target: T4, human plasma IgG3 (Homo sapiens, UniProt P01860); experiment: as above; conditions: 2 nM labeled peptide; PBS with 0.01% Tween 20
T4 construct: the individual human plasma IgG isoforms: IgG1, IgG2, IgG3, or IgG4; purchased Calbiochem; host or cells: human plasma
T4 sequence (P01860 1-377 isoform P01860-1): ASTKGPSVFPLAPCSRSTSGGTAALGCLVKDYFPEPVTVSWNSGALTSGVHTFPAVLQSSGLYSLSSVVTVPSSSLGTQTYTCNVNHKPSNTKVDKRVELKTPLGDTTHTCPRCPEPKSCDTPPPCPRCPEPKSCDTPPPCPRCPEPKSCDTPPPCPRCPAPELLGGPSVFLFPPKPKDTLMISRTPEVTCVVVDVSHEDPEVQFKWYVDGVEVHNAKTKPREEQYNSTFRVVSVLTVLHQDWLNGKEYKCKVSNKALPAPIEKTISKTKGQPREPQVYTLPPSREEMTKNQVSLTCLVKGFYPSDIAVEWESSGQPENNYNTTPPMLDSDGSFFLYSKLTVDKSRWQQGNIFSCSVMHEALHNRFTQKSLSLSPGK
Description: as §4, §1, §2, §3

[6] = test system: human IgG; format: binding; conditions: batch filterplate; for Batch Binding (% Capture of Total Load) hIgG: peptide immobilized on NHS activated sepharose 4 fast flow, target ligand density 2.0 μmole/ml
Procedure, shortened: (§5)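 Static binding, peptide resin + IgG, 1-1.5 h RT with shaking, PBST pH 7.2 or TBST pH 7.5. Flow-through read at A280 vs buffer blank; % bound = control minus unbound. Elution at pH 8.5 bicarbonate and/or pH 4.0 citrate, 30-60 min.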

[7] = target: T5, human IgG1 (Homo sapiens, UniProt P01857); format: binding; conditions: peptide immobilized on NHS activated sepharose 4 fast flow, target ligand density 2.0 μmole/ml; batch filterplate; hIgG1
T5 construct: all human subtypes derived from myeloma patients; purchased Calbiochem 400120; host or cells: myeloma patients
T5 sequence (P01857 1-330 isoform P01857-1): as the sequence (P01857 1-330 isoform P01857-1) above
Procedure, shortened: as §5

[8] = target: T6, human IgG2 (Homo sapiens, UniProt P01859); format: binding; conditions: peptide immobilized on NHS activated sepharose 4 fast flow, target ligand density 2.0 μmole/ml; batch filterplate; hIgG2
T6 construct: all human subtypes derived from myeloma patients; purchased Calbiochem 400122; host or cells: myeloma patients
T6 sequence (P01859 1-326 isoform P01859-1): as the sequence (P01859 1-326 isoform P01859-1) above
Procedure, shortened: (§6)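 Read-out is A280 of unbound IgG (1.4 mg/ml extinction coefficient), with percent bound derived against non-filtered or negative controls. Targets were incubated with immobilized peptides in PBST or TBST for 1-1.5 h at room temperature. Hydrolyzed Sepharose and immobilized Protein A serve as negative and positive controls.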

[9] = Solubility in aqueous coupling buffer; format: physicochemical; conditions: aqueous coupling conditions
Source text: The varying degree of binding may be due to, in part, to lower coupling efficiencies as a result of varying degrees of solubility in aqueous coupling conditions. […] However, coupling efficiencies of all nine DX253 variants monitored by rp-HPLC was high and averaged>85%. Actual ligand densities were not determined.

[10] = target: IgG4 (Homo sapiens, UniProt P01861); format: binding; design: all human subtypes derived from myeloma patients; purchased Calbiochem 400126; host or cells: myeloma patients; conditions: peptide immobilized on NHS activated sepharose 4 fast flow, target ligand density 2.0 μmole/ml; batch filterplate; hIgG4
Chain of IgG4 (P01861 1-327 isoform P01861-1): as the sequence (P01861 1-327 isoform P01861-1) above
Procedure, shortened: as §6

[11] = target: IgG3 (Homo sapiens, UniProt P01860); format: binding; design: all human subtypes derived from myeloma patients; purchased Calbiochem 400124; host or cells: myeloma patients; conditions: peptide immobilized on NHS activated sepharose 4 fast flow, target ligand density 2.0 μmole/ml; batch filterplate; hIgG3
Chain of IgG3 (P01860 1-377 isoform P01860-1): as the sequence (P01860 1-377 isoform P01860-1) above
Procedure, shortened: as §5

SMILES | KD (μM) IgG1 [1] | KD (μM) IgG2 [2] | KD (μM) IgG4 [3] | KD (μM) Fc [4] | KD (μM) IgG3 [5] | Kd [4] [µM] | Batch Binding (% Capture of Total Load) hIgG [6] [%] | Batch Binding (% Capture of Total Load) hIgG1 [7] [%] | Batch Binding (% Capture of Total Load) hIgG2 [8] [%] | Solubility in aqueous coupling buffer [9] | Batch Binding (% Capture of Total Load) hIgG4 [10] [%] | Batch Binding (% Capture of Total Load) hIgG3 [11] [%] | Binding properties / profile relative to parent peptide ([6]; human IgG and subtypes)
CC(=O)N[C@@H](C)C(=O)NCC(=O)N[C@@H](CCCCN)C(=O)N[C@@H](Cc1ccc(O)cc1)C(=O)N[C@@H](Cc1c[nH]c2ccccc12)C(=O)N[C@H]1CSSC[C@@H](C(=O)N[C@@H](CCCCN)C(=O)N[C@H](C(=O)NCC(=O)N[C@H](C(=O)N2CCC[C@H]2C(=O)NCC(=O)N2CCC[C@H]2C(=O)N[C@@H](CCC(=O)O)C(=O)NCC(=O)NCC(=O)NCC(=O)N[C@@H](CCCCNC(=O)c2ccc3c(c2)C(=O)OC32c3ccc(O)cc3Oc3cc(O)ccc32)C(N)=O)[C@@H](C)O)[C@@H](C)O)NC(=O)[C@H](CCC(N)=O)NC(=O)[C@H](CC(C)C)NC(=O)CNC(=O)[C@H](Cc2c[nH]c3ccccc23)NC(=O)[C@H](Cc2ccccc2)NC(=O)[C@H](CO)NC1=O [DX300] (Ac-AGKYWCSFWGLQCKTGTPGPEGGGK(5FAM)-NH2; disulfide 6-13) | No binding | No binding | No binding | No binding |  |  |  |  |  |  |  |  | 
CC(=O)NCC(=O)N[C@@H](CC(=O)O)C(=O)N[C@@H](CCCNC(=N)N)C(=O)N[C@@H](CCCNC(=N)N)C(=O)N[C@@H](C)C(=O)N[C@H]1CSSC[C@@H](C(=O)N[C@@H](C)C(=O)NCC(=O)N[C@@H](Cc2c[nH]cn2)C(=O)N[C@@H](CCC(=O)O)C(=O)N2CCC[C@H]2C(=O)NCC(=O)N2CCC[C@H]2C(=O)N[C@@H](CCC(=O)O)C(=O)NCC(=O)NCC(=O)NCC(=O)N[C@@H](CCCCNC(=O)c2ccc3c(c2)C(=O)OC32c3ccc(O)cc3Oc3cc(O)ccc32)C(N)=O)NC(=O)[C@H](Cc2c[nH]c3ccccc23)NC(=O)[C@H](C(C)C)NC(=O)[C@H](CC(C)C)NC(=O)[C@H](C)NC(=O)CNC(=O)[C@H](CO)NC(=O)[C@H](Cc2c[nH]c3ccccc23)NC(=O)[C@H](CC(=O)O)NC(=O)[C@H](CCCNC(=N)N)NC(=O)[C@H](CO)NC1=O [DX301] (Ac-GDRRACSRDWSGALVWCAGHEPGPEGGGK(5FAM)-NH2; disulfide 6-17) |  |  |  |  | No binding | 6.8 ± 4.3 |  |  |  |  |  |  | 
CC(=O)N[C@@H](CO)C(=O)N[C@@H](CCCNC(=N)N)C(=O)N[C@@H](C)C(=O)N[C@H]1CSSC[C@@H](C(=O)N[C@@H](C)C(=O)NCC(=O)N[C@@H](Cc2c[nH]cn2)C(=O)N[C@@H](CCC(=O)O)C(=O)N2CCC[C@H]2C(=O)NCC(=O)N2CCC[C@H]2C(=O)N[C@@H](CCC(=O)O)C(=O)NCC(=O)NCC(=O)NCC(=O)N[C@@H](CCCCN)C(N)=O)NC(=O)[C@H](Cc2c[nH]c3ccccc23)NC(=O)[C@H](C(C)C)NC(=O)[C@H](CC(C)C)NC(=O)[C@H](C)NC(=O)CNC(=O)[C@H](CO)NC(=O)[C@H](Cc2c[nH]c3ccccc23)NC(=O)[C@H](CC(=O)O)NC(=O)[C@H](CCCNC(=N)N)NC(=O)[C@H](CO)NC1=O [DX1139] (Ac-SRACSRDWSGALVWCAGHEPGPEGGGK-NH2; disulfide 4-15) |  |  |  |  |  |  | 36 | 43 | 34 | not fully soluble | 22 | 0 | 
CC(=O)N[C@@H](CCCNC(=N)N)C(=O)N[C@@H](CCCNC(=N)N)C(=O)N[C@@H](C)C(=O)N[C@H]1CSSC[C@@H](C(=O)N[C@@H](C)C(=O)NCC(=O)N[C@@H](Cc2c[nH]cn2)C(=O)N[C@@H](CCC(=O)O)C(=O)N2CCC[C@H]2C(=O)NCC(=O)N2CCC[C@H]2C(=O)N[C@@H](CCC(=O)O)C(=O)NCC(=O)NCC(=O)NCC(=O)N[C@@H](CCCCN)C(N)=O)NC(=O)[C@H](Cc2c[nH]c3ccccc23)NC(=O)[C@H](C(C)C)NC(=O)[C@H](CC(C)C)NC(=O)[C@H](C)NC(=O)CNC(=O)[C@H](CO)NC(=O)[C@H](Cc2c[nH]c3ccccc23)NC(=O)[C@H](CC(=O)O)NC(=O)[C@H](CCCNC(=N)N)NC(=O)[C@H](CO)NC1=O [DX1140] (Ac-RRACSRDWSGALVWCAGHEPGPEGGGK-NH2; disulfide 4-15) |  |  |  |  |  |  | 40 | 43 | 29 | not fully soluble | 20 | 0 | 
CC(=O)NCC(=O)N[C@H]1CSSC[C@@H](C(=O)N[C@@H](C)C(=O)NCC(=O)N[C@@H](Cc2c[nH]cn2)C(=O)N[C@@H](CCC(=O)O)C(=O)N2CCC[C@H]2C(=O)NCC(=O)N2CCC[C@H]2C(=O)N[C@@H](CCC(=O)O)C(=O)NCC(=O)NCC(=O)NCC(=O)N[C@@H](CCCCN)C(N)=O)NC(=O)[C@H](Cc2c[nH]c3ccccc23)NC(=O)[C@H](C(C)C)NC(=O)[C@H](CC(C)C)NC(=O)[C@H](C)NC(=O)CNC(=O)[C@H](CO)NC(=O)[C@H](Cc2c[nH]c3ccccc23)NC(=O)[C@H](CC(=O)O)NC(=O)[C@H](CCCNC(=N)N)NC(=O)[C@H](CO)NC1=O [DX1146] (Ac-GCSRDWSGALVWCAGHEPGPEGGGK-NH2; disulfide 2-13) |  |  |  |  |  |  | 73 | 83 | 80 | not fully soluble | 50 | 0 | 
CC(=O)N[C@H]1CSSC[C@@H](C(=O)N[C@@H](C)C(=O)NCC(=O)N[C@@H](Cc2c[nH]cn2)C(=O)N[C@@H](CCC(=O)O)C(=O)N2CCC[C@H]2C(=O)NCC(=O)N2CCC[C@H]2C(=O)N[C@@H](CCC(=O)O)C(=O)NCC(=O)NCC(=O)NCC(=O)N[C@@H](CCCCN)C(N)=O)NC(=O)[C@H](Cc2c[nH]c3ccccc23)NC(=O)[C@H](C(C)C)NC(=O)[C@H](CC(C)C)NC(=O)[C@H](C)NC(=O)CNC(=O)[C@H](CO)NC(=O)[C@H](Cc2c[nH]c3ccccc23)NC(=O)[C@H](CC(=O)O)NC(=O)[C@H](CCCNC(=N)N)NC(=O)[C@H](CO)NC1=O [DX1147] (Ac-CSRDWSGALVWCAGHEPGPEGGGK-NH2; disulfide 1-12) |  |  |  |  |  |  | 74 | 83 | 76 | not fully soluble | 47 | 0 | almost identical to those of DX253
